This note sets out measurements from patent US7919508B2, “3-piperidinylisochroman-5-ols as dopamine agonists” (Aventis Pharmaceuticals Inc., priority 2004, dated 2011).

Structures are written as SMILES. Structures can show the parent of a compound that is named as a salt. A value given as a limit tells only on which side of the number the result lay.

In assay [1] the target is T1, human dopamine D1 receptor (Homo sapiens, UniProt P21728).
T1 construct: A 1.4 Kb Hind III to Xho I fragment was subcloned into the vector pMMLV; expressed in transfected cells; host or cells: CHO cells, clone CHO-D1M#9 (plasmid pHD1MMLV), membranes
T1 sequence (P21728 whole entry, the tested form may be a part): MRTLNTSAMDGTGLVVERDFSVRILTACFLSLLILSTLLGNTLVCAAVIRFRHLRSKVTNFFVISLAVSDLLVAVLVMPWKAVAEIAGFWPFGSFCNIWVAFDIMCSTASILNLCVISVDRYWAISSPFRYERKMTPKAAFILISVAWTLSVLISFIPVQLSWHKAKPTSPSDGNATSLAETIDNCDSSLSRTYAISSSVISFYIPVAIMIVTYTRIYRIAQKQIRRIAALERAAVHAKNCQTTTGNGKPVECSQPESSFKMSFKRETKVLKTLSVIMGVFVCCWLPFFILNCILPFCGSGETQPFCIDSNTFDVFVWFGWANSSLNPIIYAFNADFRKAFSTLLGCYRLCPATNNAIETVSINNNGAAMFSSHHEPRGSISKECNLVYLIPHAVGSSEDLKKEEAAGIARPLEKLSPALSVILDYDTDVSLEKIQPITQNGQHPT
Put plainly: [3H]-SCH-23390 binding to cloned human dopamine D1 receptors (CHO cell membranes). The note with it: competitive binding, [3H]-SCH-23390, cloned human D1 in CHO membranes; read-out: D1 affinity Ki.

In the next assay the target is T2, D1 receptor (Homo sapiens, UniProt P21728).
T2 construct: expressed in transfected cells; host or cells: D1 transfected CHO cell line
T2 sequence (P21728 whole entry): as the sequence (P21728 whole entry, the tested form may be a part) above
Description: D1 Activation Adenylyl Cyclase Assay (cAMP FlashPlate, D1 transfected CHO cell line). The note with it: agonist activity at the D1 receptor, adenylate cyclase assay, D1 transfected CHO cell line; read-out: D1 EC50. The format is cell-based. As to the method: D1 Activation Adenylyl Cyclase Assay
Purpose: To measure D1-agonist activity compounds using an Adenylyl Cyclase Activation Flash Plate Assay from NEN.
Buffers: Activation and Detection buffers are provided from NEN: Catalog # SMP004A.
Maintenance of D1 transfected CHO cell line: • 1. Cells are grown in a 150 cc flask in an incubator at 37° C. with 5% CO2 for 2-3 days (4 maximum) until confluent. • 2. Aspirate off old media (Cells adhere to the plastic flask), wash 2× with sterile PBS. • 3. Add ˜5 mL of Trypsin EDTA (enough to cover bottom of the flask) for 5 min. at RT. • 4. Stop digestion with 15 mL of Media (Ham's F12 plus 10% FBS, 1% P/S, 400 μg/mL G418). • Bang flask on counter to release them from the flask. • 5. Add 2 mL of this to 30 mL of Media in a fresh flask. Return to incubator. Preparation of Cells for Assay: • 1. Loosen the cells with 5 mL Vercine (EDTA)/flask for 10 minutes in incubator. • 2. Add 20 mL of Serum-free media/flask. Transfer to 50-mL Falcon tube. • 3. Spin down cells at 1000 RPM for 5 minutes at 4° C. • 4. Aspirate off old media and resuspend in 5 mL of Serum-free media/plate to be done. • 5. Dilute 10 μL 1/10 in 90 μL Trypan Blue solution and count with a hemocytometer. • Count (live cells only) all four areas and average them. • Count X 10^5 equals cells/mL (including accounting for dilution in Trypan). • 6. Dilute to 50,000 cells/50 μL (1,000,000 cells/mL) in Serum-free media. • 7. Put 50 μL/well in Rows 3-12 of a cAMP FlashPlate. • 8. Put in incubator at 37° C. for 2-4 hours, to allow cells to recover and attach. Adenylyl Cyclase Activation Assay: • 1. Prepare the cAMP standards: • Add 130 μL/well of stimulation buffer to each row of a separate 96-well “standard” plate, 2 columns/plate. • Dilute stock cAMP standard 1/5 with stimulation buffer (final concentration is 1000 pmol/mL). Add 130 μL of this to row A. • Make 1/2 serial dilutions by adding 130 μL from each well to the next (A-G), mixing between each. • Final concentrations are: • A: 500, B: 250, C: 125, D: 62.5, E: 31.25, F: 15.6, G: 7.8, H: 0 pmol/mL. • Place 100 μL from each row from 2 columns of the standard plate into columns 1 and 2 of each “reaction” plate. • 2. Prepare the negative and positive control in the “reaction” plate: • Column 3, rows A-D, add 100 μL stimulation buffer (negative control). • Column 3, rows E-H, add 90 μL of stimulation buffer plus 10 μL of 200 μM APO (positive control, […]). (10 μL 10 mM APO, plus 490 μL stim. buffer=1/50 dilution.) • 3. Prepare the agonist compound dilutions in the “compound” plate: • Add 80 μL of stimulation buffer to row A (One column for each compound), and 90 μL of stimulation buffer to rows B—H. • Add 20 μL of 10 mM of each compound to appropriate row A. • Make 1/10 serial dilutions by adding 10 μL from each well to the next (A-H), mixing between each. • 4. […]. Prepare Detection/Stop buffer by adding 90 μL/plate of cAMP-^125I to 10 mL/plate plus 6 mL (for dead volume) of detection buffer. Steps 6-8 performed with the Multi-Mek. • 6. Add 50 μL to each well of the FlashPlate with CHO cells set up earlier. • 7. Incubate at RT for 8 minutes. • 8. Stop reaction by adding 100 μL of detection/stop buffer to each well. • 9. Cover with plastic film and incubate at RT for 16-24 hours (don't wait more than 24 hours). • 10. Count in a Packard Top-Count. Calculations: • 1. Raw signals generated by cAMP standard wells, without cells, are averaged at each cAMP concentration and converted to % B/Bo by dividing the raw signal at each cAMP concentration by the raw signal with no cAMP added. • 2. These values are used to generate a standard curve by plotting cAMP concentration versus % B/Bo. • 3. Raw data for each compound at each concentration is also converted to % B/B. by the same method. • 4. These values are then converted to pmol cAMP/mL using the standard curve. • 5. These cAMP values are then averaged across the three replicates for each compound concentration. • 6. […]

Assay [2] deals with human dopamine D2Long (D2L) receptors (Homo sapiens, UniProt P14416).
Chain of human dopamine D2Long (D2L) receptors (P14416 whole entry): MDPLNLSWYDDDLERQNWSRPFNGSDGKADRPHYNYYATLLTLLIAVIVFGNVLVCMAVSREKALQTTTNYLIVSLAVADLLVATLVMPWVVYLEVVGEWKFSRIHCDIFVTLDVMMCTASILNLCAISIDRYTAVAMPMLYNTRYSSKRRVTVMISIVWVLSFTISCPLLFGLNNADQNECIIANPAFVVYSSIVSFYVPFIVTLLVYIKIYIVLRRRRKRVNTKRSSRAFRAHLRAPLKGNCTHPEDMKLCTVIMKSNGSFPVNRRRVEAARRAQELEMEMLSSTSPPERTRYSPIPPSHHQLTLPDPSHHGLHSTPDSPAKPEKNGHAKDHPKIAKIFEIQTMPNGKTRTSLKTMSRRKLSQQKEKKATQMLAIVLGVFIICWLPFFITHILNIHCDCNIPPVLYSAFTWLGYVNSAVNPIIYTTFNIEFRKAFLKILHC

Take `CCCCN1CCC([C@@H]2Cc3c(ccc(C)c3O)[C@H](CN)O2)CC1` [Example 33, (1R,3S)-1-Aminomethyl-3-(1-butyl-piperidin-4-yl)-6-methyl-isochroman-5-ol dihydrochloride]: the Ki (as a rule, the dissociation constant of the complex between target and ligand, obtained from inhibition or displacement) in assay [1] is 70 nM; in assay [2] it was at least 10000 nM. Further, on D1 receptor, the EC50 (usually the concentration giving half of the maximal effect) was 13 nM.

On to `Cc1ccc2c(c1O)C[C@@H](C1CCN(CC3CCCCC3)CC1)O[C@H]2CN` [Example 34, (1R,3S)-1-Aminomethyl-3-(1-cyclohexylmethyl-piperidin-4-yl)-6-methyl-isochroman-5-ol dihydrochloride], for which the Ki in assay [1] is 47 nM; in assay [2], at least 10000 nM. In addition, on D1 receptor, the EC50 was determined as 66 nM.

Turning to `Cc1ccc2c(c1O)C[C@@H](C1CCN(Cc3ccccc3Cl)CC1)O[C@H]2CN` [Example 35, (1R,3S)-1-Aminomethyl-3-[1-(2-chloro-benzyl)-piperidin-4-yl]-6-methyl-isochroman-5-ol dihydrobromide], the Ki in assay [1] came to 42 nM; in assay [2] it was 96 nM. Further, the EC50 at D1 receptor is 44 nM.

As to `Cc1ccc2c(c1O)C[C@@H](C1CCN(Cc3ccccc3F)CC1)O[C@H]2CN` [Example 36, (1R,3S)-1-Aminomethyl-3-[1-(2-fluoro-benzyl)-piperidin-4-yl]-6-methyl-isochroman-5-ol dihydrobromide], the Ki was 42.8 nM in assay [1] and 749 nM in assay [2]. Besides, the EC50 on D1 receptor came out at 62 nM.

For the compound `Cc1ccc2c(c1O)C[C@@H](C1CCN(Cc3cccc(Cl)c3)CC1)O[C@H]2CN` [Example 37, (1R,3S)-1-Aminomethyl-3-[1-(3-chloro-benzyl)-piperidin-4-yl]-6-methyl-isochroman-5-ol dihydrobromide], the Ki in assay [1] worked out at 17.9 nM; in assay [2], 356 nM. The EC50 on D1 receptor amounted to 110 nM.

`Cc1ccc2c(c1O)C[C@@H](C1CCN(CC3CC3)CC1)O[C@H]2CN` [Example 38, (1R,3S)-1-Aminomethyl-3-(1-cyclopropylmethyl-piperidin-4-yl)-6-methyl-isochroman-5-ol dihydrochloride]: the Ki in assay [1] was 53 nM; in assay [2], at least 10000 nM. Moreover, the EC50 at D1 receptor was found to be 10 nM.

Regarding `Cc1ccc2c(c1O)C[C@@H](C1CCN(Cc3cccc4ccccc34)CC1)O[C@H]2CN` [Example 39, (1R,3S)-1-Aminomethyl-6-methyl-3-(1-naphthalen-1-ylmethyl-piperidin-4-yl)-isochroman-5-ol dihydrochloride], the Ki in assay [1] was 113 nM; in assay [2] it was at least 10000 nM. Also, the EC50 at D1 receptor turned out to be 750 nM.

Consider `Cc1ccc2c(c1O)C[C@@H](C1CCN(CCC(C)C)CC1)O[C@H]2CN` [Example 41, (1R,3S)-1-Aminomethyl-6-methyl-3-[1-(3-methyl-butyl)-piperidin-4-yl]-isochroman-5-ol dihydrochloride], for which the Ki in assay [1] was 114 nM; in assay [2], at least 10000 nM. Also, the EC50 at D1 receptor was 250 nM.

For `Cc1ccc2c(c1O)C[C@@H](C1CCN(CCO)CC1)O[C@H]2CN` [Example 43, (1R,3S)-1-Aminomethyl-3-[1-(2-hydroxy-ethyl)-piperidin-4-yl]-6-methyl-isochroman-5-ol dihydrochloride], the Ki was 86.1 nM in assay [1] and at least 10000 nM in assay [2]. The EC50 at D1 receptor is 110 nM.

As for `Cc1ccc2c(c1O)C[C@@H](C1CCN(Cc3ccc4ccccc4c3)CC1)O[C@H]2CN` [Example 45, (1R,3S)-1-Aminomethyl-6-methyl-3-(1-naphthalen-2-ylmethyl-piperidin-4-yl)-isochroman-5-ol dihydrochloride], the Ki was 96.4 nM in assay [1] and at least 10000 nM in assay [2]. Moreover, at D1 receptor, the EC50 was determined as 110 nM.

Turning to `Cc1ccc2c(c1O)C[C@@H](C1CCN(Cc3ccc(Oc4ccccc4)cc3)CC1)O[C@H]2CN` [Example 46, (1R,3S)-1-Aminomethyl-6-methyl-3-[1-(4-phenoxy-benzyl)-piperidin-4-yl]-isochroman-5-ol dihydrochloride], the Ki stood at 49 nM in assay [1] and 215 nM in assay [2]. For the same compound, the EC50 on D1 receptor is 100 nM.

As to `Cc1ccc2c(c1O)C[C@@H](C1CCN(Cc3cccs3)CC1)O[C@H]2CN` [Example 47, (1R,3S)-1-Aminomethyl-6-methyl-3-(1-thiophen-2-ylmethyl-piperidin-4-yl)-isochroman-5-ol dihydrochloride], the Ki in assay [1] was 66.4 nM; in assay [2], at least 10000 nM. Besides, the EC50 on D1 receptor came to 170 nM.

Regarding `Cc1ccc2c(c1O)C[C@@H](C1CCN(Cc3ccc(C(C)C)cc3)CC1)O[C@H]2CN` [Example 48, (1R 3S)-1-Aminomethyl-3-[1-(4-isopropyl-benzyl)-piperidin-4-yl]-6-methyl-isochroman-5-ol dihydrochloride], the Ki is 37.4 nM in assay [1] and at least 10000 nM in assay [2]. Moreover, the EC50 on D1 receptor amounted to 26 nM.

As to `Cc1ccc2c(c1O)C[C@@H](C1CCN(Cc3ccc(-c4ccccc4)cc3)CC1)O[C@H]2CN` [Example 49, (1R,3S)-1-Aminomethyl-3-(1-biphenyl-4-ylmethyl-piperidin-4-yl)-6-methyl-isochroman-5-ol dihydrochloride], the inhibitory constant (Ki) in assay [1] stood at 48.2 nM; in assay [2], 310 nM. Further, the EC50 on D1 receptor turned out to be 78 nM.

Consider `Cc1ccc2c(c1O)C[C@@H](C1CCN(Cc3cccnc3)CC1)O[C@H]2CN` [Example 53, (1R,3S)-1-Aminomethyl-6-methyl-3-(1-pyridin-3-ylmethyl-piperidin-4-yl)-isochroman-5-ol dihydrochloride], for which the Ki in assay [1] was 60.7 nM; in assay [2], at least 10000 nM. On D1 receptor, the half-maximal effective concentration (EC50) is 15 nM.

Take `Cc1ccc2c(c1O)C[C@@H](C1CCN(Cc3ccc4ccccc4n3)CC1)O[C@H]2CN` [Example 55, (1R,3S)-1-Aminomethyl-6-methyl-3-(1-quinolin-2-ylmethyl-piperidin-4-yl)-isochroman-5-ol dihydrochloride]: the Ki in assay [1] stood at 53.6 nM; in assay [2] it was 449 nM. In addition, the EC50 on D1 receptor came out at 16 nM.

Regarding `Cc1ccc2c(c1O)C[C@@H](C1CCN(Cc3cnc4ccccc4c3)CC1)O[C@H]2CN` [Example 56, (1R,3S)-1-Aminomethyl-6-methyl-3-(1-quinolin-3-ylmethyl-piperidin-4-yl)-isochroman-5-ol dihydrochloride], the values for the Ki in assay [1] and in assay [2] were 30.5 nM and at least 10000 nM, respectively. For the same compound, at D1 receptor, the EC50 came to 12 nM.

For `Cc1ccc2c(c1O)C[C@@H](C1CCN(Cc3ccnc4ccccc34)CC1)O[C@H]2CN` [Example 57, (1R,3S)-1-Aminomethyl-6-methyl-3-(1-quinolin-4-ylmethyl-piperidin-4-yl)-isochroman-5-ol dihydrochloride], the figures for the Ki in assay [1] and in assay [2] were 59.6 nM and at least 10000 nM, respectively. In addition, the EC50 at D1 receptor was 12 nM.
